Reference: PubChem BioAssay (NCI)
Where “and” joins values, the source holds several entries; their conditions need not be identical. Equal entries are not always repeated.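 Where inhibition never reached the appropriate level, the endpoint shown equals the highest concentration tested. Otherwise, values were interpolated linearly from a five-concentration, 48-hour dose response in 96-well plates. GI50 is the concentration that inhibits growth by half. Definition used: TGI = concentration required for complete inhibition of growth.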

How the values were obtained:
Experiment in all cases: growth of human tumour cells (NCI), 48 h
[1] = test system: CAKI-1 renal
[2] = test system: HCT-116 colon
[3] = test system: HOP-92 NSCLC
[4] = test system: MDA-N
[5] = test system: OVCAR-3 ovarian
[6] = test system: OVCAR-5 ovarian
[7] = test system: SN12C renal
[8] = test system: U251 CNS
[9] = test system: UO-31 renal
[10] = test system: SF-539 CNS

SMILES	TGI [1]	TGI [2]	TGI [3]	TGI [4]	TGI [5]	TGI [6]	TGI [7]	TGI [8]	TGI [9]	TGI [10]	GI50 [1]	GI50 [2]	GI50 [3]	GI50 [5]	GI50 [6]	GI50 [10]	GI50 [7]	GI50 [8]	GI50 [9]
Br[C@@H]1[C@H]2c3nc4ccccc4nc3[C@@H]1C[C@H]2Br	> 100 µM	> 100 µM	> 100 µM	> 100 µM	> 100 µM	> 100 µM	> 100 µM	> 100 µM	> 100 µM	–	–	–	–	–	–	–	–	–	–
CSc1nc(N)c2c(-c3ccccc3)c3c(nc2n1)CCCC3	> 100 µM	> 100 µM	–	> 100 µM	> 100 µM	> 100 µM	> 100 µM	> 100 µM	> 100 µM	> 100 µM	–	–	–	–	–	–	–	–	–
CC(C)C1=CC(=O)[C@@](C)(C2[C@H](O)C[C@@]3(C)[C@@H]4CC=C5[C@@H](CC[C@@H](OC6OCC(O)C(O)C6OC6OC(C)C(O)C(O)C6O)C5(C)C)[C@]4(C)C(=O)C[C@]23C)O1 (stereo not given in full)	> 100 µM	> 100 µM	> 100 µM	> 100 µM	> 100 µM	> 100 µM	> 100 µM	> 100 µM	> 100 µM	–	–	–	–	–	–	–	–	–	–
COc1cc2c(cc1OC)C(=O)/C(=C/c1cc(C)cc(C)c1)C2	–	11.6 µM	> 100 µM	0.0621 µM	1.04 µM	> 86.4 µM	32.6 µM	> 81.8 µM	> 100 µM	–	–	–	–	–	–	–	–	–	–
O=c1[nH]c(=O)n(COCc2ccccc2)cc1Nc1ccc(Br)cc1	> 100 µM	> 100 µM	> 100 µM	> 100 µM	> 100 µM	> 100 µM	> 100 µM	> 100 µM	> 100 µM	–	–	–	–	–	–	–	–	–	–
CCC(C)C1=C(O)[N+]2([O-])Oc3ccc(-c4c(O)c(O)c(-c5ccc(OC(C)=O)cc5)c(OC(C)=O)c4OC(C)=O)cc3OC2(C(C)CC)C(=O)N1O (stereo not given)	> 50 µM	–	> 50 µM	> 50 µM	> 50 µM	> 50 µM	> 50 µM	> 50 µM	> 50 µM	> 50 µM	–	–	–	–	–	–	–	–	–
OC1COC2CC(Nc3ccccn3)OC12 (stereo not given)	> 100 µM	> 100 µM	–	> 100 µM	> 100 µM	> 100 µM	> 100 µM	> 100 µM	> 100 µM	> 100 µM	–	–	–	–	–	–	–	–	–
COc1cc(-c2c3c(cc4c2OCO4)[C@@H](Nc2ccc(-c4ccc(-c5ccc(N[C@@H]6c7cc8c(cc7C(c7cc(OC)c(O)c(OC)c7)[C@H]7C(=O)OC[C@H]67)OCO8)cc5)cc4)cc2)[C@H]2COC(=O)[C@@H]2C3)cc(OC)c1O (stereo not given in full)	8.8 µM	3.19 µM	29.4 µM	–	4.85 µM	17 µM	24.4 µM	10.1 µM	13.1 µM	–	–	–	–	–	–	–	–	–	–
CCCCCCCCCCCCCC[n+]1ccc(C)cc1	2.66 µM	2.01 µM	3.3 µM	–	1.28 µM	5.18 µM	4.11 µM	1.65 µM	3.79 µM	4.72 µM	0.933 µM	0.403 µM	0.577 µM	0.351 µM	1.14 µM	1.77 µM	1.56 µM	0.437 µM	1.38 µM
C[C@]12CC(c3ccccc3O1)C(C(=O)Nc1nc(C34CC5CC(CC(C5)C3)C4)cs1)C(=O)N2 (stereo not given in full)	> 100 µM	> 100 µM	> 100 µM	–	> 100 µM	> 100 µM	> 100 µM	> 100 µM	–	–	–	–	–	–	–	–	–	–	–
Clc1ccc(C[P+](c2ccccc2)(c2ccccc2)c2ccccc2)cc1Cl	11 µM	10.8 µM	6.02 µM	–	6.74 µM	19.2 µM	15.3 µM	10.6 µM	–	14.5 µM	–	–	–	–	–	–	–	–	–
O=C1C(c2c(O)[nH]c3ccc(Br)cc23)=Nc2ccc(Br)cc21	> 100 µM	34.6 µM	> 100 µM	63 µM	> 100 µM	> 100 µM	> 100 µM	35 µM	> 100 µM	–	–	–	–	–	–	–	–	–	–
COc1cc2c(/C=C3/C(=O)Nc4ccc(Cl)cc43)c(Cl)[nH]c2cc1C	14.8 µM	10.7 µM	24.2 µM	–	3.14 µM	17.1 µM	2.67 µM	4.62 µM	15.8 µM	0.638 µM	–	–	–	–	–	–	–	–	–
O=C(O)c1nc2ccc(C(F)(F)F)cc2nc1Nc1ccc(F)cc1	78 µM	35 µM	–	79.6 µM	60.8 µM	64.3 µM	85.6 µM	> 100 µM	24.6 µM	–	–	–	–	–	–	–	–	–	–
O=C(Cn1c(C(=O)c2ccccc2)nc2ccccc21)c1ccccc1	> 100 µM	> 100 µM	> 100 µM	–	> 100 µM	> 100 µM	> 100 µM	> 100 µM	> 100 µM	> 100 µM	–	–	–	–	–	–	–	–	–
COc1cc2c(/C=C3/C(=O)N(C)c4ccc(O)cc43)c(Cl)[nH]c2cc1C	13.6 µM	–	38.5 µM	–	0.597 µM	21.6 µM	17 µM	17.6 µM	24.5 µM	0.722 µM	–	–	–	–	–	–	–	–	–

SMILES	TGI [1]	TGI [2]	TGI [3]	TGI [4]	TGI [5]	TGI [6]	TGI [7]	TGI [8]	TGI [9]	TGI [10]	GI50 [1]	GI50 [2]	GI50 [3]	GI50 [5]	GI50 [6]	GI50 [10]	GI50 [7]	GI50 [8]	GI50 [9]
N/C1=C/C(=O)NC(=O)c2c(c3ccccc3oc2=O)C1	> 100 µM	> 100 µM	> 100 µM	> 100 µM	> 100 µM	> 100 µM	> 100 µM	> 100 µM	> 100 µM	–	–	–	–	–	–	–	–	–	–
Cn1cc(S(=O)(=O)NC(=O)Nc2ccc(Cl)cc2)c(=O)c2ccc(F)cc21	> 100 µM	> 100 µM	> 100 µM	> 100 µM	–	> 100 µM	> 100 µM	> 100 µM	> 100 µM	> 100 µM	–	–	–	–	–	–	–	–	–
CCOC(=O)C1(C#N)CC1	> 100 µM	> 100 µM	–	> 100 µM	–	> 100 µM	> 100 µM	> 100 µM	> 100 µM	> 100 µM	–	–	–	–	–	–	–	–	–
C/C(N=NS(=O)(=O)c1ccc([N+](=O)[O-])cc1)=C1\C=CC=CN1O	> 100 µM	> 100 µM	> 100 µM	–	> 100 µM	> 100 µM	> 100 µM	> 100 µM	> 100 µM	> 100 µM	–	–	–	–	–	–	–	–	–
[N-]=[N+]=CC(=O)OCCCCl	> 100 µM	> 100 µM	> 100 µM	> 100 µM	> 100 µM	> 100 µM	> 100 µM	> 100 µM	> 100 µM	–	–	–	–	–	–	–	–	–	–
O=C1/C(=C/c2ccc(O)cc2)COc2ccc(O)c(O)c21	12.9 µM	3.41 µM	7.25 µM	–	5.79 µM	7.26 µM	–	13.9 µM	2.74 µM	4.97 µM	3.02 µM	1.76 µM	2.33 µM	2.05 µM	2.64 µM	1.82 µM	–	2.62 µM	1.09 µM
Cc1cc2nc3c(C#N)c4c(c(-c5ccc(Cl)cc5)n3c2cc1C)CCC4	42.9 µM	32.7 µM	50.7 µM	88 µM	40.7 µM	–	75.4 µM	78.4 µM	39.4 µM	78.9 µM	–	–	–	–	–	–	–	–	–
CC(=O)OC1[C@H](OC(C)=O)C2=C(C)[C@@H](OC(C)=O)C[C@@]2(C(C)(C)O)[C@@H](OC(C)=O)[C@H]2[C@@]1(C)[C@@H](OC(C)=O)CC(OC(C)=O)[C@]21CO1 (stereo not given in full)	> 100 µM	> 100 µM	–	> 100 µM	> 100 µM	> 100 µM	> 100 µM	> 100 µM	> 100 µM	> 100 µM	–	–	–	–	–	–	–	–	–
CCCCOC(=O)C1CC[C@H]2[C@@H]3CCc4cc(OC(=O)c5cccc6c(=O)c7ccccc7[nH]c56)ccc4[C@H]3CC[C@]12C (stereo not given in full)	13.7 µM	17.1 µM	16.5 µM	14.5 µM	15.3 µM	19.8 µM	15.3 µM	18.7 µM	14.9 µM	–	–	–	–	–	–	–	–	–	–
C=C=CC(NC(=O)c1ccccc1)(C(=O)O)C(F)(F)F (stereo not given)	–	> 100 µM	> 100 µM	–	–	> 100 µM	> 100 µM	> 100 µM	–	> 100 µM	–	–	–	–	–	–	–	–	–
CC1OC2OC3C(OCC(O)C3O)OC(=O)[C@]34CCC(C)(C)CC3C3=CCC5[C@@]6(C)C[C@H](O)[C@H](OC7OC(CO)C(O)C(O)C7OC7OCC(OC(=O)CC(C)(O)CC(=O)OC1C(O)C2O)C(O)C7O)[C@@](C)(CO)C6CC[C@@]5(C)[C@]3(C)CC4 (stereo not given in full)	–	17.4 µM	6.03 µM	13.8 µM	20.7 µM	7 µM	21.1 µM	12.6 µM	18.5 µM	26 µM	–	–	–	–	–	–	–	–	–
O=C(O)/C=C/c1c[nH]c(=O)[nH]c1=O	> 500 µM	> 500 µM	> 500 µM	–	> 500 µM	> 500 µM	> 500 µM	> 500 µM	> 500 µM	> 500 µM	–	–	> 500 µM and 76.3 µM	–	> 500 µM	–	> 500 µM	–	–
CC12CCC(CC1)C(C)(C)O2	> 61.2 µM	81.3 µM	95.2 µM	–	84.8 µM	116 µM	71.7 µM	112 µM	78.3 µM	90.1 µM	15.7 µM	12.6 µM	–	–	–	–	–	–	–
Cc1cccc(N2C(=O)C3c4[nH]c5ccc(C)cc5c4C4CCC(C(C)(C)C)CC4C3C2=O)c1 (stereo not given)	> 100 µM	–	57.6 µM	–	28.9 µM	> 100 µM	–	62.3 µM	> 100 µM	–	–	–	–	–	–	–	–	–	–
COc1ccc(C2C(=O)c3c(OC)cc(OC)cc3OC2c2cccnc2)cc1 (stereo not given)	> 100 µM	> 100 µM	–	> 100 µM	> 100 µM	> 100 µM	> 100 µM	–	> 100 µM	> 100 µM	–	–	–	–	–	–	–	–	–
